Measured values published in publication PMC8752738, “A propolis-derived small molecule ameliorates metabolic syndrome in obese mice by targeting the CREB/CRTC2 transcriptional complex” (Nature Communications, 2022).
Values joined by “and” are separate entries in the source; they are usually repeats but may differ in a detail not shown here. Equal values may be shown once. “Also recorded” adds a separate entry of the source.

Columns and labels:
CREB-CRTC2 interaction = molecular target: T1, CREB-CRTC2 interaction (Homo sapiens, UniProt P16220); assay: CREB–CRTC2 mammalian two-hybrid assay (GAL4-Luc reporter); format: cell-based; design: CREB/CRTC2 -luc activity %: concentration or dose not given beside the values; conditions: for relative Gal4-luc activity %: Fig 3b replicates
T1 construct: expressed in transfected cells; host or cells: HEK293T
T1 sequence (P16220 whole entry, the tested form may be a part): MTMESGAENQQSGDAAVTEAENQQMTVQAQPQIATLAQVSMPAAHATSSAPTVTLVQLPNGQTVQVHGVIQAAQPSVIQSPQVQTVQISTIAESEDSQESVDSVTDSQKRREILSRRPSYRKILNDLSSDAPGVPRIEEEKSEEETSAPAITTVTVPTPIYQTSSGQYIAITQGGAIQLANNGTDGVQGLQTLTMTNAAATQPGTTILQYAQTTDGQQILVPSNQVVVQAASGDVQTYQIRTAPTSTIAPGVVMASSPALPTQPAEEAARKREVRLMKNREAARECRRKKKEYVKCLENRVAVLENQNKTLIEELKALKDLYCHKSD

HIS-CRTC2-S171A proteins = molecular target: T2, HIS-CRTC2-S171A proteins (Homo sapiens, UniProt Q53ET0, S171A); assay: Surface plasmon resonance, immobilized HIS-CRTC2-S171A; format: binding
T2 construct: made in house; host or cells: E. coli
T2 sequence (Q53ET0 whole entry S171A): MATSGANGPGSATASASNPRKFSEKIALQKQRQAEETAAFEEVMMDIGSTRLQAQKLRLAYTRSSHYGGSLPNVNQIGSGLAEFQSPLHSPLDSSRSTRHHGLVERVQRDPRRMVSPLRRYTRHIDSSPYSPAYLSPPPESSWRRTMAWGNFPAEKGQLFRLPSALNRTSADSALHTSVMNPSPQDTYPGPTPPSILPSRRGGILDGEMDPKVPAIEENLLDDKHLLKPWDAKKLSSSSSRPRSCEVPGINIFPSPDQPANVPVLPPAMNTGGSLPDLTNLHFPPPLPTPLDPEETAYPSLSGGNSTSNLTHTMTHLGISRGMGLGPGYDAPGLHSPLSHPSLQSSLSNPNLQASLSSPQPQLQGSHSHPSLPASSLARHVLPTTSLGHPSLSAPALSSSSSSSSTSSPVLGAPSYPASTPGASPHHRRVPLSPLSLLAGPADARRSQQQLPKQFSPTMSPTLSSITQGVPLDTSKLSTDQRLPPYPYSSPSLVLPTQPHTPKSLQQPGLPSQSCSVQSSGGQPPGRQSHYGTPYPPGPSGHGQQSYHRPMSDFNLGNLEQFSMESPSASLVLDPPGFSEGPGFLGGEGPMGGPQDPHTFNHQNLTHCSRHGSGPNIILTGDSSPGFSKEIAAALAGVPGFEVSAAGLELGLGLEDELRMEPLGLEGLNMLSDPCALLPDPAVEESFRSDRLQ

mouse Lxra promoter = assay: Truncated Lxra-LUC reporter in HEK293T; format: cell-based; conditions: for Relative luciferase reporter activity of mouse LXRa promotor deletion series, group mean (Mean 2) / Relative luciferase reporter activity of mouse LXRa promotor deletion series, group mean (Mean 1) / Relative luciferase reporter activity of mouse LXRa promotor deletion series: APC 10uM; for Relative luciferase reporter activity of mouse LXRa promotor deletion series: individual replicates
Procedure: Fig. 7 APC inhibits SREBP1 expression via the CRE-LXRα-LXRE axis. a Quantitative PCR analysis of hepatic expressions of Lxra, Ppra, Pprg, Rxra in DIO mice, which were continuously i.p. injected with control vehicle (VEH) or APC (20 mg/kg) with indicated doses one time daily for 5 weeks (n = 6 per group). One of two independent experiments is shown here. Data are represented as mean ± SEM. *P < 0.05; **P < 0.01; P values were determined by two-way ANOVA followed Bonferroni’s multiple comparisons test. b Immunoblotting analysis of hepatic LXRα and premature SREBP1 protein levels in the livers of DIO mice injected APC for 5 weeks as (a). One of three independent experiments is shown here (left). The relative protein of LXRα, SREBP1, and PPARα normalized by GAPDH is shown as a bar graph (right) (n = 3). Data are represented as mean ± SEM. *P < 0.05; **P < 0.01; P values were determined by two-way ANOVA followed Bonferroni’s multiple comparisons test. c CHIP analysis LXRa and RXRa recruited to the promoter of the mouse Srebf1 (top) gene in primary hepatocytes from wild C57 mice and pretreated APC (10 μM) for 1-h (bottom) (n = 4 per treatment). One of three independent experiments presented here. Data are represented as mean ± SEM. *P < 0.05; **P < 0.01; P values were determined by two-way ANOVA followed Bonferroni multiple comparisons test. d CHIP analysis of CREB and CRTC2 occupancy over the half CRE sites in the Lxra promoter (Top) in primary mouse hepatocytes overexpressing CRTC2, pretreated with APC (10 μM) for 1-h prior to 1-h glucagon stimulation (Gluc, 100 nM) (bottom) (n = 4 per treatment). One of three independent experiments presented here. Data are represented as mean ± SEM. *P < 0.05; **P < 0.01; P values were determined by two-way ANOVA followed Bonferroni’s multiple comparisons test. e Reporter activity of truncated Lxra-LUC reporter. The luciferase reporter was driven by mouse Lxra promoter (−1342) or truncations (−784 and −178) co-transfected with MYC-Creb and FLAG-Crtc2-S171A in HEK293T cells, and pretreated with APC prior to stimulation with FSK (10 nM) for 4-h (n = 3 per treatment). One of three independent experiments presented here. Data are represented as mean ± SEM. *P < 0.05; **P < 0.01; P values were determined by two-way ANOVA followed Bonferroni’s multiple comparisons test. f Quantitative PCR analysis of the expression of CRTC2, Lxra, Srebf-1c, and Srebf-2, in primary hepatocytes, which were infected by LV-Crtc2-S171A or control and incubated with APC (10 μM) for 8-h (n = 3 per treatment). One of three independent experiments presented here. Data are represented as mean ± SEM. *P < 0.05; **P < 0.01; P values were determined by two-way ANOVA followed Bonferroni’s multiple comparisons test. g Quantitative PCR analysis of Lxra gene expression in the liver of CRTC2-KO mice. Be induced by high-fat diet for 8 weeks, with Crtc2-KO mice and wild-type littermates administered VEH (vehicle control), MET (metformin, 200 mg/kg), or APC (20 mg/kg) for 3 weeks, followed by fasting 8-h before anesthesia (n = 5 per group). Data are represented as mean ± SEM. *P < 0.05; **P < 0.01; P values of Crtc2 gene were determined by unpaired two-tailed t test with Welch’s correction, and P values of Lxra gene were determined by two-way ANOVA followed Bonferroni’s multiple comparisons test. h Immunoblotting analysis of LXRα protein in the liver of these mice as in (g). One of two independent experiments is presented here (top), and the relative concentration of LXRα normalized to ACTIN is shown as a bar graph (bottom). (n = 5 mice per group, two technological repeats represent a composite pool). Data are represented as mean ± SEM. *P < 0.05; **P < 0.01; P values were determined by two-way ANOVA followed Bonferroni’s multiple comparison test. Source data for this figure are provided as source data file.

Structure (SMILES): CC(C)=CCc1cc(C=CC(=O)O)cc(CC=C(C)C)c1O [APC, 3,5-diprenyl-4-hydroxycinnamic acid]
- remaining activity at 1000 µM (CREB-CRTC2 interaction; 16 h, Figure 9b, Log10(M) -3, single replicates, read-out: Gal4-LUC reporter activiry, %): 0.439%
- remaining activity at 100 µM (CREB-CRTC2 interaction; 16 h, Figure 9b, Log10(M) -4, single replicates, read-out: Gal4-LUC reporter activiry, %): 0.257%
- remaining activity at 1 µM (CREB-CRTC2 interaction; 16 h, Figure 9b, Log10(M) -6, single replicates, read-out: Gal4-LUC reporter activiry, %): 36.2%
- remaining activity at 0.1 µM (CREB-CRTC2 interaction; 16 h, Figure 9b, Log10(M) -7, single replicates, read-out: Gal4-LUC reporter activiry, %): 71.6%
- remaining activity at 0.01 µM (CREB-CRTC2 interaction; 16 h, Figure 9b, Log10(M) -8, single replicates, read-out: Gal4-LUC reporter activiry, %): 92.8%
- remaining activity at 0.001 µM (CREB-CRTC2 interaction; 16 h, Figure 9b, Log10(M) -9, single replicates, read-out: Gal4-LUC reporter activiry, %): 74.9%
- remaining activity at 0.0001 µM (CREB-CRTC2 interaction; 16 h, Figure 9b, Log10(M) -10, single replicates, read-out: Gal4-LUC reporter activiry, %): 102%
- relative Gal4-luc activity % (CREB-CRTC2 interaction; APC Log10(M) -3): 0.3266% and 0.2637% and 0.3128%
- relative Gal4-luc activity % (CREB-CRTC2 interaction; APC Log10(M) -4): 10.2018% and 10.3248% and 10.277%
- relative Gal4-luc activity % (CREB-CRTC2 interaction; APC Log10(M) -5): 61.3194% and 69.9978% and 76.9726%
- relative Gal4-luc activity % (CREB-CRTC2 interaction; APC Log10(M) -6): 65.67% and 82.3932% and 92.7658%
- relative Gal4-luc activity % (CREB-CRTC2 interaction; APC Log10(M) -7): 64.5839% and 85.9224% and 107.618%
- relative Gal4-luc activity % (CREB-CRTC2 interaction; APC Log10(M) -8): 99.4977% and 99.5841% and 100.918%
- relative Gal4-luc activity % (CREB-CRTC2 interaction; APC Log10(M) -9): 107.021% and 111.522% and 103.779%
- Relative Gal4-LUC activity, single replicates (CREB-CRTC2 interaction; Figure 1f, CREB-CRTC2 two-hybrid assay, DMSO control about 100, listed as P3): 21.4874 and 38.8421 and 27.0437
- reporter activity of CREB–CRTC2 two-hybrid assay (CREB-CRTC2 interaction; HEK293T, isolated compound 25 μM, listed as P3): significantly inhibited; also recorded: most potent
- Related Gal4-luc % (CREB-CRTC2 interaction; Supp. Fig.10 a, individual replicates, Ctrl about 97): 42.290% and 38.150% and 46.110% and 51.003%
- Related Gal4-luc %, group mean (Test details, Mean 2) (CREB-CRTC2 interaction; Supp. Fig.10 a, mean of n=4, CTRL mean 96.58): 44.39%
- CREB/CRTC2 -luc activity % (CREB-CRTC2 interaction; Supp. Fig.10 b, individual replicates, Ctrl about 100): 51.481% and 56.411% and 65.126%
- IC50 (CREB-CRTC2 interaction; cell-based two-hybrid assay, HEK293T cells, read-out: IC50 for disrupting CREB–CRTC2 interaction): ~24.5 µM and 24.5 µM
- affinity to CRTC2 (SPR) (HIS-CRTC2-S171A proteins): no affinity
- Relative luciferase reporter activity of mouse LXRa promotor deletion series, group mean (Mean 2) (mouse Lxra promoter; -178, CREB/CRTC2-S171A +, Ctrl (no FSK), mean of N=3): 80.85
- Relative luciferase reporter activity of mouse LXRa promotor deletion series, group mean (Mean 1) (mouse Lxra promoter; -178, CREB/CRTC2-S171A +, FSK, mean of N=3): 101.4
- Lxra-LUC reporter activity, Mean (mouse Lxra promoter; -178 construct, Ctrl (no FSK), mean of N=3, -1342_Ctrl = 100): 80.85
- Lxra-LUC reporter activity, Mean (mouse Lxra promoter; -178 construct, FSK, mean of N=3, -178_Ctrl with FSK = 80.5): 101.4
- Relative luciferase reporter activity of mouse LXRa promotor deletion series, group mean (Mean 2) (mouse Lxra promoter; -784, CREB/CRTC2-S171A +, Ctrl (no FSK), mean of N=3): 65.74
- Relative luciferase reporter activity of mouse LXRa promotor deletion series, group mean (Mean 1) (mouse Lxra promoter; -784, CREB/CRTC2-S171A +, FSK, mean of N=3): 80.88
- Lxra-LUC reporter activity, Mean (mouse Lxra promoter; -784 construct, Ctrl (no FSK), mean of N=3, -1342_Ctrl = 100): 65.74
- Lxra-LUC reporter activity, Mean (mouse Lxra promoter; -784 construct, FSK, mean of N=3, -784_Ctrl with FSK = 84.79): 80.88
- Relative luciferase reporter activity of mouse LXRa promotor deletion series, group mean (Mean 2) (mouse Lxra promoter; -1342, CREB/CRTC2-S171A +, Ctrl (no FSK), mean of N=3): 120.4
- Relative luciferase reporter activity of mouse LXRa promotor deletion series, group mean (Mean 1) (mouse Lxra promoter; -1342, CREB/CRTC2-S171A +, FSK, mean of N=3): 140.5
- Lxra-LUC reporter activity, Mean (mouse Lxra promoter; -1342 construct, Ctrl (no FSK), mean of N=3, -1342_Ctrl = 100): 120.4
- Lxra-LUC reporter activity, Mean (mouse Lxra promoter; -1342 construct, FSK, mean of N=3, -1342_Ctrl with FSK = 265.7): 140.5
- Lxrα-luc reporter activity (mouse Lxra promoter; HEK293T, FSK, attenuated when half CRE site −984 deleted): inhibition of Lxrα-luc reporter activity
- Relative luciferase reporter activity of mouse LXRa promotor deletion series (mouse Lxra promoter; mLXRa promoter region -178, CREB/CRTC2-S171A +, Ctrl (no FSK)): 68.909
- Relative luciferase reporter activity of mouse LXRa promotor deletion series (mouse Lxra promoter; mLXRa promoter region -178, CREB/CRTC2-S171A +, Ctrl (no FSK), unstimulated control): 81.477 and 92.1755
- Relative luciferase reporter activity of mouse LXRa promotor deletion series (mouse Lxra promoter; mLXRa promoter region -178, CREB/CRTC2-S171A +, FSK, FSK stimulated): 110.535 and 84.2634 and 109.449
- Relative luciferase reporter activity of mouse LXRa promotor deletion series (mouse Lxra promoter; mLXRa promoter region -784, CREB/CRTC2-S171A +, Ctrl (no FSK)): 58.3809
- Relative luciferase reporter activity of mouse LXRa promotor deletion series (mouse Lxra promoter; mLXRa promoter region -784, CREB/CRTC2-S171A +, Ctrl (no FSK), unstimulated control): 73.0822 and 65.7554
- Relative luciferase reporter activity of mouse LXRa promotor deletion series (mouse Lxra promoter; mLXRa promoter region -784, CREB/CRTC2-S171A +, FSK, FSK stimulated): 83.8052 and 88.4723 and 70.3736
- Relative luciferase reporter activity of mouse LXRa promotor deletion series (mouse Lxra promoter; mLXRa promoter region -1342, CREB/CRTC2-S171A +, Ctrl (no FSK)): 97.1063
- Relative luciferase reporter activity of mouse LXRa promotor deletion series (mouse Lxra promoter; mLXRa promoter region -1342, CREB/CRTC2-S171A +, Ctrl (no FSK), unstimulated control): 135.223 and 128.99
- Relative luciferase reporter activity of mouse LXRa promotor deletion series (mouse Lxra promoter; mLXRa promoter region -1342, CREB/CRTC2-S171A +, FSK, FSK stimulated): 139.251 and 135.05 and 147.302
